Assay results published in US8962018B2, “Oral formulation of anhydrous olanzapine form I” (Laboratorios Lesvi, S.L., priority 2005, dated 2015).

Legend:
Assay type in all cases: physicochemical
[1] = Stability of olanzapine Form I product under ambient storage conditions
Experimental: Said method includes in vacuo drying of the solvate at a pressure ranging between 1 and 40 mmHg, preferably between 1 and 20 mmHg, and a temperature controlled between 10 and 50° C., preferably between 20 and 40° C. Said method provides olanzapine Form I in a simple manner, with a high yield of the end product (olanzapine Form I) and with high chemical purity (level of total impurities less than 0.3% as determined by HPLC), together with a high polymorphic purity (Form II<2%).

[2] = X-ray diffraction study of polymorphic form after direct compression; details: after direct compression into tablets
[3] = Effect of aqueous medium used for the coating on stability of the solid form; details: aqueous medium used for preparation of the coating

Cc1cc2c(s1)Nc1ccccc1N=C2N1CCN(C)CC1 [olanzapine Form I, Olanzapine]
Stability and colour variations [1]: remains stable and does not undergo colour variations | Polymorphic form stability (formation of Form II) [2]: remains stable without any formation of detectable amounts of the polymorph Form II being observed | Related substances and polymorphic form after aqueous coating [3]: no increase of related substances nor change in the polymorphic form
